From patent publication US20160158200A1, “Combinations of Hepatitis C Virus Inhibitors” (priority 2013, published 2016)

System: HCV genotype-1a variant with glutamine 30 changed to glutamate in the NS5A protein
Assay type: cell-based
Settings: test compound titrated with BMS-790052 fixed at 200 nM; genotype 1a Q30E replicon
Outline: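 Synergy was assessed by combining several fixed amounts of an NS5A-targeting compound with a titration of the second compound of interest.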

Compound: CC(C)[C@H](NC(=O)C1CCC(F)(F)CC1)c1ncc(-c2ccc(-c3ccc(-c4cnc([C@@H](NC(=O)C(C)(C)C)C(C)C)[nH]4)cc3)cc2)[nH]1 [Compound Y-52]
- Fold-Synergistic 1a (Q30E): >100 fold

Compound: COC(c1ccccc1)C1(C(=O)N[C@H](c2nc(-c3ccc(-c4ccc(-c5c[nH]c([C@@H](NC(=O)C6(C(OC)c7ccccc7)CC6)C(C)(C)C)n5)cc4)cc3)c[nH]2)C(C)(C)C)CC1 (single isomer, unassigned) [Compound N-137C]
- Fold-Synergistic 1a (Q30E): >100 fold

Compound: CC(C)(C)[C@H](NC(=O)C1(O)CCC(F)(F)CC1)c1nc(-c2ccc(-c3ccc(-c4c[nH]c([C@@H](NC(=O)C5(O)CCC(F)(F)CC5)C(C)(C)C)n4)cc3)cc2)c[nH]1 [Compound P-33]
- Fold-Synergistic 1a (Q30E): >100 fold

Compound: CC(C)(C)[C@H](NC(=O)OC1CCC(F)(F)CC1)c1nc(-c2ccc(-c3ccc(-c4c[nH]c([C@@H](NC(=O)OC5CCC(F)(F)CC5)C(C)(C)C)n4)cc3)cc2)c[nH]1 [Compound P-138]
- Fold-Synergistic 1a (Q30E): >100 fold

Compound: CC(C)[C@H](NC(=O)Cc1cccc2ccccc12)c1ncc(-c2ccc(-c3ccc(-c4cnc([C@@H](NC(=O)Cc5cccc6ccccc56)C(C)C)[nH]4)cc3)cc2)[nH]1 [Compound S-9]
- Fold-Synergistic 1a (Q30E): >10 fold

Compound: CC1(C)C[C@@H](C(=O)N[C@H](c2nc(-c3ccc(-c4ccc(-c5c[nH]c([C@@H](NC(=O)[C@@H]6CC(C)(C)CN6C(=O)OC(C)(C)C)C(C)(C)C)n5)cc4)cc3)c[nH]2)C(C)(C)C)N(C(=O)OC(C)(C)C)C1 [Compound W-93]
- Fold-Synergistic 1a (Q30E): >100 fold

Compound: COC1(C(=O)NC(c2nc(-c3ccc(-c4ccc(-c5c[nH]c(C(NC(=O)C6(OC)CCOC6)C(C)C)n5)cc4)cc3)c[nH]2)C(C)C)CCOC1 (mixture of isomers) [Compound N-159]
- Fold-Synergistic 1a (Q30E): >100 fold

Compound: COC(=O)N[C@H](C(=O)N1CCC[C@H]1c1ncc(-c2ccc(-c3ccc(-c4cnc([C@@H](NC(=O)[C@@H]5CCCN5C(=O)OC(C)(C)C)C(C)(C)C)[nH]4)cc3)cc2)[nH]1)C(C)C [Compound B-191]
- Fold-Synergistic 1a (Q30E): >10 fold

Compound: CC(C)[C@H](NC(=O)c1ccc(F)cc1F)c1ncc(-c2ccc(-c3ccc(-c4cnc([C@@H](NC(=O)c5ccc(F)cc5F)C(C)C)[nH]4)cc3)cc2)[nH]1 [Compound S-89]
- Fold-Synergistic 1a (Q30E): >100 fold

Compound: CCN(CC(F)(F)F)C(=O)C(=O)N[C@H](c1nc(-c2ccc(-c3ccc(-c4c[nH]c([C@@H](NC(=O)C(=O)N(CC)CC(F)(F)F)C(C)(C)C)n4)cc3)cc2)c[nH]1)C(C)(C)C [Compound W-37]
- Fold-Synergistic 1a (Q30E): >100 fold

Compound: Cc1nn(-c2ccccc2)nc1C(=O)N[C@H](c1ncc(-c2ccc(-c3ccc(-c4cnc([C@@H](NC(=O)c5nn(-c6ccccc6)nc5C)C(C)C)[nH]4)cc3)cc2)[nH]1)C(C)C [Compound S-95]
- Fold-Synergistic 1a (Q30E): >10 fold

Compound: CC(C)(C)[C@H](NC(=O)C1CCC(F)(F)CC1)c1nc2c([nH]1)-c1ccc(-c3ccc4c(ccc5nc([C@@H](NC(=O)C6CCC(F)(F)CC6)C(C)(C)C)[nH]c54)c3)cc1CC2 [Compound B24]
- Fold-Synergistic 1a (Q30E): >100 fold

Compound: CC(C)[C@H](NC(=O)c1cnccn1)c1ncc(-c2ccc(-c3ccc(-c4cnc([C@@H](NC(=O)c5cnccn5)C(C)C)[nH]4)cc3)cc2)[nH]1 [Compound S-15]
- Fold-Synergistic 1a (Q30E): >10 fold

Compound: CC(C)[C@H](NC(=O)c1ccc(C(F)(F)F)nc1)c1ncc(-c2ccc(-c3ccc(-c4cnc([C@@H](NC(=O)c5ccc(C(F)(F)F)nc5)C(C)(C)C)[nH]4)cc3)cc2)[nH]1 [Compound Y-47]
- Fold-Synergistic 1a (Q30E): >100 fold

Compound: Cc1cccc(C(=O)N[C@H](c2ncc(-c3ccc(-c4ccc(-c5cnc([C@@H](NC(=O)c6cccc(C)n6)C(C)C)[nH]5)cc4)cc3)[nH]2)C(C)C)n1 [Compound S-48]
- Fold-Synergistic 1a (Q30E): >100 fold

Compound: CC(C)(C)OC(=O)N1CCCC[C@@H]1C(=O)N[C@H](c1nc(-c2ccc(-c3ccc(-c4c[nH]c([C@@H](NC(=O)[C@H]5CCCCN5C(=O)OC(C)(C)C)C(C)(C)C)n4)cc3)cc2)c[nH]1)C(C)(C)C [Compound L-16]
- Fold-Synergistic 1a (Q30E): >100 fold

Compound: CC(C)(C)[C@H](NC(=O)C1CC2CCC(C1)C2(F)F)c1nc(-c2ccc(-c3ccc(-c4c[nH]c([C@@H](NC(=O)C5CC6CCC(C5)C6(F)F)C(C)(C)C)n4)cc3)cc2)c[nH]1 (stereo partly shown) [Compound P-45]
- Fold-Synergistic 1a (Q30E): >100 fold

Compound: Cc1cc(-c2ccc(-c3c[nH]c([C@@H](NC(=O)C4(C)CCCCC4)C(C)C)n3)cc2)ccc1-c1c[nH]c([C@@H](NC(=O)C2(C)CCCCC2)C(C)C)n1.O=C(O)C(F)(F)F [Compound N-79]
- Fold-Synergistic 1a (Q30E): >100 fold

Compound: CC(O)C1(C(=O)N[C@H](c2ncc(-c3ccc(-c4ccc(-c5cnc([C@@H](NC(=O)C6(C(C)O)CC6)C(C)(C)C)[nH]5)cc4)cc3)[nH]2)C(C)(C)C)CC1 (single isomer, unassigned) [Compound B75]
- Fold-Synergistic 1a (Q30E): >100 fold

Compound: CC(C)(C)[C@H](NC(=O)C1CCC(F)(F)CC1)c1ncc(-c2ccc(-c3cc4ccc(-c5cnc([C@@H](NC(=O)C6CCC(F)(F)CC6)C(C)(C)C)[nH]5)cc4o3)cc2)[nH]1 [Compound B61]
- Fold-Synergistic 1a (Q30E): >100 fold

Compound: CC(C)(C)[C@H](NC(=O)c1cccc(B(O)O)c1)c1nc(-c2ccc(-c3ccc(-c4cnc([C@@H](NC(=O)c5cccc(B(O)O)c5)C(C)(C)C)[nH]4)cc3)cc2)c[nH]1 [Compound B-178]
- Fold-Synergistic 1a (Q30E): >10 fold

Compound: CC(C)CC(=O)N1C[C@@H](C)C[C@H]1c1nc(-c2ccc(-c3ccc(-c4c[nH]c([C@@H]5C[C@H](C)CN5C(=O)CC(C)C)n4)cc3)cc2)c[nH]1 [Compound P-51]
- Fold-Synergistic 1a (Q30E): <10 fold

Compound: CC(C)(C)[C@H](NC(=O)[C@@]1(C)CCC(F)(F)CO1)c1nc(-c2ccc(-c3cnc(-c4c[nH]c([C@@H](NC(=O)[C@@]5(C)CCC(F)(F)CO5)C(C)(C)C)n4)cn3)cc2)c[nH]1 [Compound N-130]
- Fold-Synergistic 1a (Q30E): >100 fold

Compound: CC(C)(C)[C@H](NC(=O)C1(C2(O)CCC(F)(F)CC2)CC1)c1nc2ccc(C#Cc3ccc4nc([C@@H](NC(=O)C5(C6(O)CCC(F)(F)CC6)CC5)C(C)(C)C)[nH]c4c3)cc2[nH]1.O=C(O)C(F)(F)F [Compound B41B]
- Fold-Synergistic 1a (Q30E): >100 fold

Compound: CC1CN(C(=O)C(=O)NC(c2nc(-c3ccc(-c4ccc(-c5c[nH]c(C(NC(=O)C(=O)N6CC(C)OC(C)C6)C(C)C)n5)cc4)cc3)c[nH]2)C(C)C)CC(C)O1 (stereo not shown) [Compound W-54]
- Fold-Synergistic 1a (Q30E): >100 fold

Compound: CC(C)[C@H](NC(=O)C1(c2ccc(Cl)cc2)CCCC1)c1ncc(-c2ccc(-c3ccc(-c4cnc([C@@H](NC(=O)C5(c6ccc(Cl)cc6)CCCC5)C(C)C)[nH]4)cc3)cc2)[nH]1 [Compound S-2]
- Fold-Synergistic 1a (Q30E): >100 fold

Compound: O=C(OCc1ccccc1)N1CCC[C@H]1c1ncc(-c2ccc(-c3ccc(-c4cnc([C@@H]5CCCN5C(=O)OCc5ccccc5)[nH]4)cc3)cc2)[nH]1 [Compound S-216]
- Fold-Synergistic 1a (Q30E): >10 fold

Compound: CC(C)(C(=O)N[C@H](c1nc(-c2ccc(-c3ccc(-c4c[nH]c([C@@H](NC(=O)C(C)(C)C(O)c5ccccc5F)C(C)(C)C)n4)cc3)cc2)c[nH]1)C(C)(C)C)C(O)c1ccccc1F (single isomer, unassigned) [Compound N-124A]
- Fold-Synergistic 1a (Q30E): >100 fold

Compound: COC(=O)N1C[C@H](F)C[C@@]1(C)C(=O)N[C@H](c1nc(-c2ccc(-c3ccc(-c4c[nH]c([C@@H](NC(=O)[C@]5(C)C[C@@H](F)CN5C(=O)OC)C(C)(C)C)n4)cc3)cc2)c[nH]1)C(C)(C)C [Compound W-210]
- Fold-Synergistic 1a (Q30E): >100 fold

Compound: CCC(C)(C)C(=O)N[C@H](c1nc(-c2ccc(-c3ccc(-c4c[nH]c([C@@H](NC(=O)C(C)(C)CC)C(C)(C)C)n4)cc3)cc2)c[nH]1)C(C)(C)C [Compound P-11]
- Fold-Synergistic 1a (Q30E): >100 fold

Compound: CC(C)(C)C(NC(=O)C1CCCCC1c1ccccc1)c1nc(-c2ccc(-c3ccc(-c4c[nH]c(C(NC(=O)C5CCCCC5c5ccccc5)C(C)(C)C)n4)cc3)cc2)c[nH]1 (mixture of isomers) [Compound S-269]
- Fold-Synergistic 1a (Q30E): >100 fold

Compound: CC(C)[C@H](NC(=O)OC(C)(C)C)c1ncc(-c2ccc(-c3ccc(-c4cnc([C@@H](NC(=O)OC(C)(C)C)C(C)(C)C)[nH]4)cc3)cc2)[nH]1 [Compound Y-40]
- Fold-Synergistic 1a (Q30E): >100 fold

Compound: CC(C)[C@H](NC(=O)c1nn(C)c2ccccc12)c1ncc(-c2ccc(-c3ccc(-c4cnc([C@@H](NC(=O)c5nn(C)c6ccccc56)C(C)C)[nH]4)cc3)cc2)[nH]1 [Compound P-96]
- Fold-Synergistic 1a (Q30E): >100 fold

Compound: COCC(NC(=O)C1CCC(F)(F)CC1)c1nc(-c2ccc(-c3ccc(-c4c[nH]c(C(COC)NC(=O)C5CCC(F)(F)CC5)n4)cc3)cc2)c[nH]1 [Compound L-102]
- Fold-Synergistic 1a (Q30E): >100 fold

Compound: CCCCOC(=O)N1CCC[C@H]1c1ncc(-c2ccc(-c3ccc(-c4cnc([C@@H]5CCCN5C(=O)OCCCC)[nH]4)cc3)cc2)[nH]1 [Compound S-219]
- Fold-Synergistic 1a (Q30E): >10 fold

Compound: COC(C)(C)C(=O)N[C@H](c1nc(-c2ccc(-c3ccc(-c4c[nH]c([C@@H](NC(=O)C(C)(C)OC)C(C)C)n4)cn3)cc2)c[nH]1)C(C)C.O=C(O)C(F)(F)F [Compound N-102]
- Fold-Synergistic 1a (Q30E): >100 fold

Compound: CC(C)(C)C(NC(=O)C(C)(C)C(O)C1CC1)c1nc(-c2ccc(-c3ccc(-c4c[nH]c(C(NC(=O)C(C)(C)C(O)C5CC5)C(C)(C)C)n4)cc3)cc2)c[nH]1 (mixture of isomers) [Compound N-148]
- Fold-Synergistic 1a (Q30E): >100 fold

Compound: CC(C)[C@H](NC(=O)C1CCC(F)(F)CC1)c1ncc(-c2ccc3cc(-c4ccc5nc([C@@H](NC(=O)C6CCC(F)(F)CC6)C(C)C)[nH]c5c4)ccc3c2)[nH]1 [Compound B55]
- Fold-Synergistic 1a (Q30E): >100 fold

Compound: CC(C)(C)[C@H](NC(=O)c1ccccc1OC(F)F)c1nc(-c2ccc(-c3ccc(-c4c[nH]c([C@@H](NC(=O)c5ccccc5OC(F)F)C(C)(C)C)n4)cc3)cc2)c[nH]1 [Compound P-25]
- Fold-Synergistic 1a (Q30E): >100 fold

Compound: CC(C)(C)[C@H](NC(=O)[C@]1(C)C[C@@H](F)CN1)c1nc(-c2ccc(-c3ccc(-c4c[nH]c([C@@H](NC(=O)[C@]5(C)C[C@@H](F)CN5)C(C)(C)C)n4)cc3)cc2)c[nH]1 [Compound W-209]
- Fold-Synergistic 1a (Q30E): >100 fold
